Measurements taken from US6630128B1, “Porphyrin derivatives their use in photodynamic therapy and medical devices containing them” (Destiny Pharma Limited, priority 1999, dated 2003).

Key:
[1] = Fluorescence quantum yields (corrected emission spectra, relative to TPP); assay type: physicochemical; details: excitation wavelength 355 nm, emission 550-800 nm
Protocol: Mass spectra were recorded on a Finnigan MAT TSQ 700 triple quadrupole mass spectrometer equipped with an […]. The matrix-assisted laser desorption/ionization mass spectra of the porphyrins were obtained using a dithranol matrix. FAB-MS spectra were obtained using a 3-nitrobenzyl alcohol (NOBA) matrix. ^1H-NMR spectra were measured at 60 MHz on a Jeol JNM-PMX60 spectrometer, at 270 MHz on a Jeol EX 270 spectrometer and at 300 MHx on a Varian Gemini-300 spectrometer in CDCl3 using TMS as an internal reference. Ultraviolet/visible spectra of solutions of compounds in tetrahydrofuran (THF) or toluene were measured using a Hitachi U-3000 spectrophotometer or a ATI-Unicam UV-2 spectrophotometer. Reflectance-absorbance infra red (RAIR) spectra were recorded on a BIO-RAD FTS 165 spectrophotometer. Fluorescence emission spectra were recorded using a Spex Fluorolog 3 spectrophotometer at an excitation wavelength of 355 nm, emission at 550 to 800 nm, with a bandpass of 2 nm.
The emission spectra were recorded using a Spex Fluorolog 3, excitation wavelength=355 nm, emission 550-800 nm, with a bandpass of 2 nm. A spectrum was recorded for each of the title compounds of Examples 67 to 81.
The fluorescence quantum yield for each of the title compounds of Examples 67 to 81 was determined by measuring the integral of the corrected emission spectra for each compound and calculated relative to TPP=0.11 (Handbook of Photochemistry Ed 2, Murov, Carmichael and Hug, Dekker 1993). The fluorescence quantum yield for each of the title compounds of Examples 67 to 81 are listed in Table 1; values for Zn TPP and Mg TPP are included in Table 1 for reference but they were not measured in this work.

[2] = Singlet oxygen quantum yields (singlet oxygen phosphorescence at 1270 nm); assay type: physicochemical; details: aerated toluene, excitation 355 nm, 20-23° C., relative to TPP ΦΔ=0.58
Protocol: The singlet oxygen quantum yields were determined by the direct measurement of singlet oxygen phosphorescence at 1270 nm. Samples were excited using the third harmonic of a Q-switched Nd:YAG (neodymium: yttrium-aluminium-garnet) Spectra Physics GCR-150-10 laser, operating at an excitation wavelength of 355 nm. A small fraction of the laser output was passed through a solution state filter containing aqueous cobalt (II) sulphate (CoSO4) to remove residual 532 and 1064 nm radiation and then down a 8 mm diameter liquid light guide (Oriel). For the measurements the end of the light guide was held against a 1 cm×1 cm fluorescence cuvette (Hellma) holding the sample. During the course of the experiments the incident laser energy for each measurement was determined using a pyroelectric detector held behind the sample. This detector was calibrated at the start of the experiment using a second calibrated energy meter (Gentec ED100). The laser energy was adjusted by placing cells containing aqueous sodium nitrite between the CoSO4 filter and the light guide. Typical pulse energies used were in the range of 25-500 μJ per pulse. Shot to shot noise was estimated to be <10% and sets of 20 shots gave an average value within <3%.
Phosphorescence from the sample was collected and passed through an interference filter centred at 1270 nm available from (Infra Red Engineering Ltd) and then focused onto the active area of a liquid nitrogen cooled germanium photodiode (North Coast EO-817P). The output from this device was AC coupled to a digital oscilloscope (Tektronix TDS-320) which digitised and averaged the transients. Typically 20 laser shots were used for each sample. The averaged data was transferred to a PC where it was stored and analysed.
A stock solution of each of the title compounds of Examples 67 to 81 was prepared by dissolving a small sample of the respective title compound in approximately 5 ml of toluene (Fisher Scientific, Analytical grade). The exact concentrations of the stock solution was not determined.
A working solution of each of the title compounds of Examples 67 to 81 was prepared by diluting the respective stock solution with toluene to give an absorbance of 0.100±0.005 at 355 nm when placed in a ultraviolet/visible spectrometer (ATI-Unicam UV-2) compared to a reference cell containing the pure toluene solvent. The ultraviolet/visible spectrum of each sample was also recorded over the range 300-700 nm.
All of the data were recorded at ambient temperature, 20-23° C., and the solutions were aerated. The singlet oxygen emission decay was recorded for each sample using 5 laser energies and the data for each measurement were fitted to an exponential decay of the form I(t)=A.exp(−t/τ), where I(t) is the measured intensity of singlet oxygen phosphorescence at time t, A is the intensity extrapolated back to t=0 (ie when the laser fires), and τ is the lifetime of singlet oxygen. A typical decay for the title compound of Example 78 in toluene excited at 355 nm using a pulse energy of 365 μJ, where A=19.6 and τ=27.8 μs, is shown in FIG. 2.
A plot of A versus the incident laser energy was drawn for each sample and the slope determined. The slope of such a graph is proportional to the singlet oxygen quantum yield. An example of a plot showing the linear relationship between the singlet oxygen emission intensity and the laser energy for the title compound of Example 78 and meso-tetraphenylporphyrin (TPP) is shown in FIG. 3.
The experiments were carried out using batches of 5 samples of the working solution of each of the title compounds of 67 to 81 plus one reference sample meso-tetraphenylporphyrin (TPP). Each run was repeated at least once. The data sets obtained for each sample were within ±5% of the mean value.
The dominant sources of error in the experiment include the shot-to-shot fluctuations in the laser and the difference in absorbances of the samples at the excitation wavelength. The values have an error of ±10%. […]

Row | Compound | Quantum yield of fluorescence, relative to TPP = 0.11 [1] | ΦΔ (singlet oxygen quantum yield) [2]
1 | 5,5′-{4,4′-[12,12′-Dithiobis-(dodecyloxy)-phenyl]}-10,10′,15,15′,20,20′-hexakis-(3,4,5-tridecyloxy-phenyl)-diporphyrinato Zinc [Example 67] | 0.04 | 0.65 ± 0.07
2 | 5-[4-(6-but-3-Enyloxy-hexyloxy)-phenyl]-10,15,20-tris-(3,4,5-tridecyloxy-phenyl)-porphyrinato Zinc [Example 70] | 0.04 | 0.75 ± 0.07
3 | 5-[4-(12-but-3-Enyloxy-dodecyloxy)-phenyl]-10,15,20-tris-(3,5-didecyloxy-phenyl)-porphyrinato Zinc [Example 80] | 0.04 | 0.75 ± 0.07
4 | 5-[4-(12-but-3-Enyloxy-dodecyloxy)-phenyl]-10,15,20-tris-(3,5-dihexadecyloxy-phenyl)-porphyrinato Zinc [Example 81] | 0.04 | 0.70 ± 0.07
5 | C=CCCOCCCCCCCCCCCCOc1ccc(-c2c3nc(c(-c4cc(OCCCCCCCCCC)c(OCCCCCCCCCC)c(OCCCCCCCCCC)c4)c4ccc([n-]4)c(-c4cc(OCCCCCCCCCC)c(OCCCCCCCCCC)c(OCCCCCCCCCC)c4)c4nc(c(-c5cc(OCCCCCCCCCC)c(OCCCCCCCCCC)c(OCCCCCCCCCC)c5)c5ccc2[n-]5)C=C4)C=C3)cc1.[Zn+2] [Example 73, 5-[4-(12-but-3-Enyloxy-dodecyloxy)-phenyl]-10,15,20-tris-(3,4,5-tridecyloxy-phenyl)-porphyrinato Zinc] | 0.04 | 0.71 ± 0.07
6 | C=CCCOCCCCCCCCCCCCOc1ccc(-c2c3nc(c(-c4cc(OCCCCCCCCCCCCCCCC)c(OCCCCCCCCCCCCCCCC)c(OCCCCCCCCCCCCCCCC)c4)c4ccc([n-]4)c(-c4cc(OCCCCCCCCCCCCCCCC)c(OCCCCCCCCCCCCCCCC)c(OCCCCCCCCCCCCCCCC)c4)c4nc(c(-c5cc(OCCCCCCCCCCCCCCCC)c(OCCCCCCCCCCCCCCCC)c(OCCCCCCCCCCCCCCCC)c5)c5ccc2[n-]5)C=C4)C=C3)cc1.[Zn+2] [Example 74, 5-[4-(12-but-3-Enyloxy-dodecyloxy)-phenyl]-10,15,20-tris-(3,4,5-trihexadecyloxy-phenyl)-porphyrinato Zinc] | 0.04 | 0.71 ± 0.07
7 | C=CCCOCCCCCCCCCCCCCCCCOc1ccc(-c2c3nc(c(-c4cc(OCCCCCCCCCCCCCCCC)c(OCCCCCCCCCCCCCCCC)c(OCCCCCCCCCCCCCCCC)c4)c4ccc([n-]4)c(-c4cc(OCCCCCCCCCCCCCCCC)c(OCCCCCCCCCCCCCCCC)c(OCCCCCCCCCCCCCCCC)c4)c4nc(c(-c5cc(OCCCCCCCCCCCCCCCC)c(OCCCCCCCCCCCCCCCC)c(OCCCCCCCCCCCCCCCC)c5)c5ccc2[n-]5)C=C4)C=C3)cc1.[Zn+2] [Example 76, 5-[4-(16-but-3-Enyloxy-hexadecyloxy)-phenyl]-10,15,20-tris-(3,4,5-trihexadecyloxy-phenyl)-porphyrinato Zinc] | 0.03 | 0.66 ± 0.07

The next lines start with results.

Row | Quantum yield of fluorescence, relative to TPP = 0.11 [1] | Compound | ΦΔ (singlet oxygen quantum yield) [2]
8 | 0.10 | 5,5′-{4,4′-[12,12′-Dithiobis-(dodecyloxy)-phenyl]}-10,10′,15,15′,20,20′-hexakis-(3,4,5-tridecyloxy-phenyl)-diporphyrinato Magnesium [Example 68] | 0.39 ± 0.04
9 | 0.04 | 5-[4-(6-but-3-Enyloxy-hexyloxy)-phenyl]-10,15,20-tris-(3,5-didecyloxy-phenyl)-porphyrinato Zinc [Example 79] | 0.76 ± 0.08
10 | 0.04 | 5-[4-(12-but-3-Enyloxy-dodecyloxy)-phenyl]-10,15,20-tris-(3,4,5-trihexyloxy-phenyl)-porphyrinato Zinc [Example 72] | 0.71 ± 0.07
11 | 0.04 | C=CCCOCCCCCCOc1ccc(-c2c3nc(c(-c4cc(OCCCCCC)c(OCCCCCC)c(OCCCCCC)c4)c4ccc([n-]4)c(-c4cc(OCCCCCC)c(OCCCCCC)c(OCCCCCC)c4)c4nc(c(-c5cc(OCCCCCC)c(OCCCCCC)c(OCCCCCC)c5)c5ccc2[n-]5)C=C4)C=C3)cc1.[Zn+2] [Example 69, 5-[4-(6-but-3-Enyloxy-hexyloxy)-phenyl]-10,15,20-tris-(3,4,5-trihexyloxy-phenyl)-porphyrinato Zinc] | 0.71 ± 0.07
12 | 0.04 | C=CCCOCCCCCCOc1ccc(-c2c3nc(c(-c4cc(OCCCCCCCCCCCCCCCC)c(OCCCCCCCCCCCCCCCC)c(OCCCCCCCCCCCCCCCC)c4)c4ccc([n-]4)c(-c4cc(OCCCCCCCCCCCCCCCC)c(OCCCCCCCCCCCCCCCC)c(OCCCCCCCCCCCCCCCC)c4)c4nc(c(-c5cc(OCCCCCCCCCCCCCCCC)c(OCCCCCCCCCCCCCCCC)c(OCCCCCCCCCCCCCCCC)c5)c5ccc2[n-]5)C=C4)C=C3)cc1.[Zn+2] [Example 71, 5-[4-(6-but-3-Enyloxy-hexyloxy)-phenyl]-10,15,20-tris-(3,4,5-trihexadecyloxy-phenyl)-porphyrinato Zinc] | 0.72 ± 0.07
13 | 0.04 | C=CCCOCCCCCCCCCCCCCCCCOc1ccc(C2=c3ccc4[n]3[Zn][n]3c(ccc3C(c3cc(OCCCCCCCCCC)c(OCCCCCCCCCC)c(OCCCCCCCCCC)c3)=C3C=CC(=N3)C=4c3cc(OCCCCCCCCCC)c(OCCCCCCCCCC)c(OCCCCCCCCCC)c3)C(c3cc(OCCCCCCCCCC)c(OCCCCCCCCCC)c(OCCCCCCCCCC)c3)=C3C=CC2=N3)cc1 [Example 75, 5-[4-(16-but-3-Enyloxy-hexadecyloxy)-phenyl]-10,15,20-tris-(3,4,5-tridecyloxy-phenyl)-porphyrinato Zinc] | 0.71 ± 0.07
14 | 0.14 | C=CCCOCCCCCCOc1ccc(-c2c3nc(c(-c4cc(OCCCCCCCCCC)c(OCCCCCCCCCC)c(OCCCCCCCCCC)c4)c4ccc([n-]4)c(-c4cc(OCCCCCCCCCC)c(OCCCCCCCCCC)c(OCCCCCCCCCC)c4)c4nc(c(-c5cc(OCCCCCCCCCC)c(OCCCCCCCCCC)c(OCCCCCCCCCC)c5)c5ccc2[n-]5)C=C4)C=C3)cc1.[Mg+2] [Example 77, 5-[4-(6-but-3-Enyloxy-hexyloxy)-phenyl]-10,15,20-tris-(3,4,5-tridecyloxy-phenyl)-porphyrinato Magnesium] | 0.51 ± 0.05
